Results taken from US5476850A, “Amino-substituted benzenesulfonylureas and -thioureas and their use as pharmaceuticals” (Hoechst Aktiengesellschaft, priority 1993, dated 1995).

Key:
[1] = tested on: papillary muscle of the guinea-pig; assay: Action potential duration on the papillary muscle of the guinea-pig (microelectrode technique; APD shortened by 2-deoxyglucose or rilmakalim); type: cell-based; settings: test substance 2.2·10^-5 mol per liter, 30 minutes after addition, control <40 ms; for APD95 -rilmakalim: action potential reduced by 1 μM rilmakalim (Hoe 234); for APD95 -DEO: action potential reduced by 2-deoxyglucose (DEO)
Text: (1) Action potential duration on the papillary muscle of the guinea-pig:
ATP deficiency states, as are observed during ischemia in the cardiac muscle cell, lead to a reduction of the action potential duration. They count as one of the causes of so-called reentry arrhythmias, which can cause sudden heart death. The opening of ATP-sensitive K channels by the reduction of ATP counts as causal here.
To measure the action potential, a standard microelectrode technique is employed. For this, guinea-pigs of both sexes are killed by a blow to the head, the hearts are removed, and the papillary muscles are separated out and suspended in an organ bath. The organ bath is irrigated with Ringer solution (0.9% NaCl, 0.048% KCl, 0,024% CaCl2, 0.02% NaHCO3 and 0.1% glucose) and aerated with a mixture of 95% oxygen and 5% carbon dioxide at a temperature of 36° C. The muscle is stimulated by means of an electrode using square-wave impulses of 1 V and 1 ms duration and a frequency of 2 Hz. The action potential is derived and recorded by means of a glass microelectrode inserted intracellularly, which is filled with […] KCl solution. The substances to be tested were added to the Ringer solution in a concentration of 2.2·10^-5 mol per liter. The action potential is shown amplified on an oscilloscope using an amplifier from Hugo Sachs. The duration of the action potential is determined at a degree of repolarization of 95% (APD95). Action potential reductions are produced either by addition of a 1 μM solution of the potassium channel opener rilmakalim (Hoe 234) [W. Linz, E. Klaus, U. Albus, R. H. A. Becker, D. Mania, H. C. Englert, B. A. Schokens, Arzneimittelforschung/Drug Research, Volume 42 (II), 1992, pp. 1180 to 1185] or by addition of 2-deoxyglucose (DEO). In experimental physiology, ATP deficiency states are produced by 2-deoxyglucose by blockade of glucose metabolism. The action potential-reducing effect of these substances was prevented or reduced by the simultaneous addition of the test substances. Test substances were added to the bath solution as stock solutions in propanediol. The values indicated relate to measurements 30 minutes after addition. The APD95 in the presence of […] or rilmakalim and in the absence of the test substance counts as the control.

[2] = tested on: RINm5F cells; assay: Membrane potential on isolated β-cells (whole cell patch clamp, RINm5F cells); type: cell-based; settings: compound 10^-6 mol per liter; diazoxide 100 μmol in bath; 34°±1° C.; blank cell potential -76
Text: (2) Membrane potential on isolated β-cells:
The mechanism of action of the hypoglycemic sulfonylureas is elucidated in rough terms. The target organ is the β-cells of the pancreas where increased secretion of the hypoglycemic hormone insulin occurs. The release of insulin is controlled by means of the cell membrane potential. Glibenclamide causes a depolarization of the cell membrane, which promotes insulin release via an increased influx of calcium ions. The extent of this depolarization of the cell membrane ΔU was determined on RINm5F cells, a pancreas tumor cell line, for a few of the compounds according to the invention. The potency of a compound in this model predicts the extent of the hypoglycemic potential of this compound.
RINm5F cells were cultured at 37° C. in RPMI 1640 culture medium (Flow), to which 11 mmol of glucose, 10% (vol/vol) fetal calf-serum, 2 mmol of glutamine and 50 μg/ml of gentamycin were added. […]
Isolated RINm5F cells were transferred to a Plexiglas chamber on an inverted microscope which is equipped with a differential interference contrast optical system. […] In this whole cell configuration, the cell potential was recorded with the aid of a patch clamp amplifier (L/M EPC 7) and measured by applying a voltage ramp to the whole cell current. […]

Structure (SMILES) | APD95 -rilmakalim [1] | APD95 -DEO [1] | ΔU (depolarization of the cell membrane) [2]
CNC(=S)NS(=O)(=O)c1cc(CCNC(=O)c2cc(Cl)ccc2OC)ccc1N1CCCCC1 [Example 2, 2-Methoxy-5-chloro-N-{5-[1-sulfonylamino-N-(methylaminothiocarbonyl)-2-(1-piperidyl)phenyl]ethyl}benzamide] | 153 ± 15 ms | 105 ± 11 ms | 19 mv
CNC(=S)NS(=O)(=O)c1cc(CCNC(=O)c2cc(Cl)ccc2OC)ccc1N1CCOCC1 [Example 1, 2-Methoxy-5-chloro-N-{5-[1-sulfonylamino-N-(methylaminothiocarbonyl)-2-(4-morpholino)phenyl]ethyl}benzamide] | 121 ± 14 ms | 110 ms | 14 mv
